Reference: US12043601B2, “N-substituted-1H-1,2,4-triazole-3-carboxamides, analogues thereof, and methods of treatment using same” (THE REGENTS OF THE UNIVERSITY OF COLORADO, priority 2018, dated 2024)
Values after ≈ are worked out from the molar mass of the structure shown. Values joined by “and” are separate entries in the source; they are usually repeats but may differ in a detail not shown here. Equal values may be shown once. “Also recorded” adds a separate entry of the source. Read-outs that look alike come from different tables or passages of the source.

Columns and labels:
[1] = tested on: T1, E. coli RNA polymerase holoenzyme; test: rpsM in vitro transcription by RNA polymerase itself; assay type: biochemical; details: up to 10 μM
T1 construct: purchased NEB, Ipswich, MA
T1 sequence (P0A7Z4 whole entry): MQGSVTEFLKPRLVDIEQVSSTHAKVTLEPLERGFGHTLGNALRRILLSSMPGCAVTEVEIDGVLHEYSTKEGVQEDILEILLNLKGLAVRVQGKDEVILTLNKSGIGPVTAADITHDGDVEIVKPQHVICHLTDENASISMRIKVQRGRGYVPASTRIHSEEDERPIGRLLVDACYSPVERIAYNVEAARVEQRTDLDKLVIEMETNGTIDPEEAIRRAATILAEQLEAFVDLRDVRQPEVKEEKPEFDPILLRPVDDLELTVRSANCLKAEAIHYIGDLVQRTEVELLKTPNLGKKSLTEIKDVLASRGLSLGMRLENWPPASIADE
T1 sequence (P0A8V2 whole entry, further chain): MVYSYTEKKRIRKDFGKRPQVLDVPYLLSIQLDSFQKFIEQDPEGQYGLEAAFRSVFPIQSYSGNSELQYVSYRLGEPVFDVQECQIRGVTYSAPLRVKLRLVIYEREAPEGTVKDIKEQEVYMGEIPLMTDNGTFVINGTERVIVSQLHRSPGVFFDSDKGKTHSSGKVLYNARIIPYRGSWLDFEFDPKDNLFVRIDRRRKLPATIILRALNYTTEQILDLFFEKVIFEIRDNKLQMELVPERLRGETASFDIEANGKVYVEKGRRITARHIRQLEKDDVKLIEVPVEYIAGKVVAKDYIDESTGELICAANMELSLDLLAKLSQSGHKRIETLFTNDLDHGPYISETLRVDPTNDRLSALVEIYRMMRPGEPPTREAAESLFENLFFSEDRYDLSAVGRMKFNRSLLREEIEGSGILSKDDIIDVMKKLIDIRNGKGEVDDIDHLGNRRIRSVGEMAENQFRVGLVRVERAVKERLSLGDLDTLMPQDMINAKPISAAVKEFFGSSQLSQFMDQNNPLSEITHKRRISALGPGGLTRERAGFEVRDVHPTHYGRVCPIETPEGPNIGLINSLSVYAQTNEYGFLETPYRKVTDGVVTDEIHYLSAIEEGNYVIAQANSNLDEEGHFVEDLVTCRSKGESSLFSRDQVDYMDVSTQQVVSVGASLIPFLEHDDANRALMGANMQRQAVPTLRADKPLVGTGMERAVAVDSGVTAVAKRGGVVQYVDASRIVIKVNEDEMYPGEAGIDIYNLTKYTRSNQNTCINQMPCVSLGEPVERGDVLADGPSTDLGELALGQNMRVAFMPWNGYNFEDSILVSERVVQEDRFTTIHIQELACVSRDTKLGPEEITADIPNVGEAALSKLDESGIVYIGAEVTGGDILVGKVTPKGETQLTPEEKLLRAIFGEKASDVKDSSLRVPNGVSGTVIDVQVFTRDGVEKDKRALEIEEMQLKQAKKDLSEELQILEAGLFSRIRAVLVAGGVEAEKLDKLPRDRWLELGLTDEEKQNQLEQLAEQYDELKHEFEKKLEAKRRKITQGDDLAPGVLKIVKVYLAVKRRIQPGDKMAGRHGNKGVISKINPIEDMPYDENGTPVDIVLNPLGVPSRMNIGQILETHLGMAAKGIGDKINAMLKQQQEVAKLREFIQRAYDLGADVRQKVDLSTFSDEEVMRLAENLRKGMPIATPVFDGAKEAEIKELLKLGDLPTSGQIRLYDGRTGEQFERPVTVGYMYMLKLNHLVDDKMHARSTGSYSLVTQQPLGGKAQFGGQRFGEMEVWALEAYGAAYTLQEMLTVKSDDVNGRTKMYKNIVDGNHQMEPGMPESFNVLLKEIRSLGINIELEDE
T1 sequence (P0A8T7 whole entry, further chain): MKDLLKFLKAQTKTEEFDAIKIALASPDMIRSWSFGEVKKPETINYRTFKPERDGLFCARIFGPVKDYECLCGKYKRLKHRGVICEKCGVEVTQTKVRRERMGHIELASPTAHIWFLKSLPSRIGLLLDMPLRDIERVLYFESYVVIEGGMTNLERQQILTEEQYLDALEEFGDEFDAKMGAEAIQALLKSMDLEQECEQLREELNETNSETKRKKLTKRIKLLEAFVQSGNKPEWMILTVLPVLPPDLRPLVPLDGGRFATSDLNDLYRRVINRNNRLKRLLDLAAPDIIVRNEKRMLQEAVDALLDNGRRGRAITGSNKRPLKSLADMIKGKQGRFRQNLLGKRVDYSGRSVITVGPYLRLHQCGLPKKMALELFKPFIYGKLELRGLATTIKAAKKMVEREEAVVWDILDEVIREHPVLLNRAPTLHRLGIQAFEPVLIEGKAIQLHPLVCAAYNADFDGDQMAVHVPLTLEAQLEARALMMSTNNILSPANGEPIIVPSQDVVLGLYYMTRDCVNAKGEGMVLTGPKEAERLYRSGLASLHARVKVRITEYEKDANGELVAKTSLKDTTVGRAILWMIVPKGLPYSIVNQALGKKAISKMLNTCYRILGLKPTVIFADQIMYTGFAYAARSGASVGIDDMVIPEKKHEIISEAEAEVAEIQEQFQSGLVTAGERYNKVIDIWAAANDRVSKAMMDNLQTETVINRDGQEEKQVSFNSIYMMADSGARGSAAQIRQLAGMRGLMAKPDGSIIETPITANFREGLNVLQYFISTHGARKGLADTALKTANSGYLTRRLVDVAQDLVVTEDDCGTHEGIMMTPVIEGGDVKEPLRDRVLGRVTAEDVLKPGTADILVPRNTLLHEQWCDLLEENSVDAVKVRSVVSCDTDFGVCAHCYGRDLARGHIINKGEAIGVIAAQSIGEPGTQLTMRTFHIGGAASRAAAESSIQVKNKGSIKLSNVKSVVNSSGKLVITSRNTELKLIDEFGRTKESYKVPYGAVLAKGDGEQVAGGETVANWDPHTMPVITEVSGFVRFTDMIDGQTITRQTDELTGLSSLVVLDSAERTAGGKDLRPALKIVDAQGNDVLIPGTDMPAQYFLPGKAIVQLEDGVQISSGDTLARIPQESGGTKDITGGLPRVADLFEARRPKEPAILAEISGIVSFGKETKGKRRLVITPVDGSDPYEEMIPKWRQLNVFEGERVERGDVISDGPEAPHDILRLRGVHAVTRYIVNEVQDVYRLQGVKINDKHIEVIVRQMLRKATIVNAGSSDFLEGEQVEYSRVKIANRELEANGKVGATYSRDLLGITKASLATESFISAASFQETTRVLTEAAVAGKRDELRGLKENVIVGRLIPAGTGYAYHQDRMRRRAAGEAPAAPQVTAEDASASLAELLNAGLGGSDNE
T1 sequence (P0A800 whole entry, further chain): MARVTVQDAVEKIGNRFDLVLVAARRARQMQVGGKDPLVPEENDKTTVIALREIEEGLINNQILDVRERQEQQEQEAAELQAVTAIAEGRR
T1 sequence (P00579 whole entry, further chain): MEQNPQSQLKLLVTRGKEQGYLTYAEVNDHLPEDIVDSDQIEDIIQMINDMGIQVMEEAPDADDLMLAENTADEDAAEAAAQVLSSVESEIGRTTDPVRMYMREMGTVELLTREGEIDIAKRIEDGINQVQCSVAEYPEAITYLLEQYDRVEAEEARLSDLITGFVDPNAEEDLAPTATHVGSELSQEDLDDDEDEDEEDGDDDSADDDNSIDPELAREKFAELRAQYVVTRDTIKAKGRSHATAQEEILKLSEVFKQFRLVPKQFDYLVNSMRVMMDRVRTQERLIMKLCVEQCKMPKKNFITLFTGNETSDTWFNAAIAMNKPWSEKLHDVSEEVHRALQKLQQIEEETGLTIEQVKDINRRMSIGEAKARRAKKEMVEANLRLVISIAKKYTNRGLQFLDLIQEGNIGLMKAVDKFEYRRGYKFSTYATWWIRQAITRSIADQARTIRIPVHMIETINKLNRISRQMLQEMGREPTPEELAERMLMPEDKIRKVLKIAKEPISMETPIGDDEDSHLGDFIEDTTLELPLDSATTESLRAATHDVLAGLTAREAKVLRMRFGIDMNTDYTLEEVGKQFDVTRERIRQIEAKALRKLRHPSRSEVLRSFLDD
Procedure: To measure the potency of a compound in inhibition of DksA biological function, rpsMtranscripts in vitro was determined by non-radioactive in vitro transcription reactions with qPCR analysis with divergent compounds. […] The in vitro transcription was carried out at 37° C. for 10 min, and then terminated at 70° C. for 10 min. To remove template DNA after treated with DNaseI, DNA-free DNA Removal kit (ThermoFisher) was used according to manufacturer's direction. The resulting materials were used as templates to generate cDNA with 100 U MMLV reverse transcriptase (Promega), 0.45 μM gene specific primer, and 20 U RNase inhibitor (Promega). The amount of cDNA synthesized for 1 h at 42° C. was quantified by real-time PCR (qRT-PCR). The copy number of specific transcripts was calculated to the standard curve generated with known gene copy concentrations. The IC50 is the concentration at which the curve passes through the 50% inhibition level. Standard deviation was calculated from 3 independent experiments.
The compounds obtained in this screen were further analyzed for binding to the acidic pocket at the tip of DksA coiled-coil domain using the computer search program Dock. The analysis identified over 400 compounds. […] The compounds selected were further refined according to energy minimization as calculated by the CNS program. […]

Salmonella = test: Disk diffusion assay; assay type: cell-based; details: among drugs that inhibited DksA function in the in vitro screens
Procedure: Salmonella was grown overnight in LB broth at 37° C. with shaking. The bacterial cultures were diluted by 1:1000 with PBS. 100 μl of the diluted samples were transferred into E-salts glucose agar. The bacteria were spread on the surface of the agar. Two discs (BBL blank paper discs 6 mm) were placed per/plate, and 10 μl of 10 mM or 100 mM stock compound were added to the discs. The plates were incubated at 37° C. overnight. The diameter of inhibition was expressed in mm.

DksA [2] = target: T2, DksA (Salmonella typhimurium, UniProt P0A1G5); test: DksA-dependent livJ in vitro transcription; assay type: biochemical; details: livJ promoter; for IVT: concentration showing activity
T2 sequence (P0A1G5 whole entry): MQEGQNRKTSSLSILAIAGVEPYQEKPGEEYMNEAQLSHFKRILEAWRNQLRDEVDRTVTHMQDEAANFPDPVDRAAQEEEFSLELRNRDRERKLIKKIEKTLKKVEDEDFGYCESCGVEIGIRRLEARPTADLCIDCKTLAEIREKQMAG
Procedure: (§1) To measure the potency of a compound in inhibition of DksA biological function, rpsMtranscripts in vitro was determined by non-radioactive in vitro transcription reactions with qPCR analysis with divergent compounds. Briefly, 5 nM pTIM-rpsMplasmid was mixed with […] of compounds in 10 μl reaction buffer (40 mM HEPES [pH 7.4], 2 mM MgCl2, 60 mM potassium glutamate, 0.05% NP-40, 200 μM ATP, 200 μM GTP, 200 μM CTP, 200 μM UTP, and 5 nM E. coli RNA polymerase holoenzyme (NEB, Ipswich, MA) with 5 μM DksA. The in vitro transcription was carried out at 37° C. for 10 min, and then terminated at 70° C. for 10 min. To remove template DNA after treated with DNaseI, DNA-free DNA Removal kit (ThermoFisher) was used according to manufacturer's direction. The resulting materials were used as templates to generate cDNA with 100 U MMLV reverse transcriptase (Promega), 0.45 μM gene specific primer, and 20 U RNase inhibitor (Promega). The amount of cDNA synthesized for 1 h at 42° C. was quantified by real-time PCR (qRT-PCR). The copy number of specific transcripts was calculated to the standard curve generated with known gene copy concentrations. The IC50 is the concentration at which the curve passes through the 50% inhibition level. Standard deviation was calculated from 3 independent experiments.
(§2) The compounds were initially tested at 0.1 μM and 1 μM using as a target the promoter of the livJ gene that encodes a transporter of branch-chain amino acids (Table 4).

J774 cells = test: Lactate dehydrogenase (LDH) release from infected host cells; assay type: cell-based; details: 32 μg/ml; 18 h after infection with wild-type or ΔdksA Salmonella; p=0.3
DksA [3] = target: T2, DksA; test: DksA-dependent activation of hisG in vitro transcription; assay type: biochemical; details: as little as 0.1 μM
Procedure: To measure the potency of a compound in inhibition of DksA biological function, rpsMtranscripts in vitro was determined by non-radioactive in vitro transcription reactions with qPCR analysis with divergent compounds. […] The amount of cDNA synthesized for 1 h at 42° C. was quantified by real-time PCR (qRT-PCR). The copy number of specific transcripts was calculated to the standard curve generated with known gene copy concentrations. […] Standard deviation was calculated from 3 independent experiments.
The compounds obtained in this screen were further analyzed for binding to the acidic pocket at the tip of DksA coiled-coil domain using the computer search program Dock. […] The compounds selected were further refined according to energy minimization as calculated by the CNS program. 23 compounds were obtained from MolPort and they were tested for their ability to interfere with DksA in a high throughput screen that combined in vitro transcription with highly specific and quantitative qRT-PCR. […]

E. coli strain 3110 = test: Minimum inhibitory concentration in EG minimum media, E. coli; assay type: cell-based; details: Escherichia coli
Excerpt: (§3) DksA controls transcription of metabolic and virulence genes, allowing bacteria to both grow in minimum media and cause disease. Inhibition of bacterial growth in EG minimum media was used as an easy and reliable proxy of the DksA-dependent regulation of metabolism.

Salmonella strain 14028s [4] = test: Minimum inhibitory concentration in EG minimal media; assay type: cell-based, Salmonella Typhimurium; details: for Growth in EG at concentration tested 1 μg/ml / Growth in EG at concentration tested 2 μg/ml / Growth in EG at concentration tested 4 μg/ml / Growth in EG at concentration tested 8 μg/ml / Growth in EG at concentration tested 16 μg/ml: EG minimal media, 37° C.
Procedure: as §3
In a non-limiting example, wild-type Salmonella strain 14028s was grown overnight (18.5 h), and then diluted in EG minimal media to a density of about 10^5 CFU/mL. […] Each test tube was incubated at 37° C. with shaking for 18 h and bacterial growth was evaluated. The MIC value was determined as the lowest concentration of compound that inhibited growth.

Compound solubility = assay type: physicochemical; details: for Compound Solubility, 1 μM: solvent at 1 μM; for Compound Solubility, 10 μM: solvent at 10 μM; for Compound Solubility, 100 μM: solvent at 100 μM; for Compound Solubility, 1 mM: solvent at 1 mM; for Compound Solubility, 10 mM: solvent at 10 mM; for Compound Solubility, 16 mg/ml: solvent at 16 mg/ml
DksA [5] = target: T2, DksA; test: DksA-mediated repression of rpsM in vitro transcription (IVT, qRT-PCR); assay type: biochemical
Procedure: as §1
The compounds obtained in this screen were further analyzed for binding to the acidic pocket at the tip of DksA coiled-coil domain using the computer search program Dock. The analysis identified over 400 compounds. A panel of 40 compounds was selected from the top hits based on free energy binding scores. These compounds were investigated using the computer modeling program O. Two additional criteria were applied in order to narrow down the list of candidates: First, the compounds needed to fit deep into the pocket without any clashes; and second, the compounds bound to DksA should have minimal exposed moieties. The compounds selected were further refined according to energy minimization as calculated by the CNS program. 23 compounds were obtained from MolPort and they were tested for their ability to interfere with DksA in a high throughput screen that combined in vitro transcription with highly specific and quantitative qRT-PCR. Five of these compounds, including N-(3,4-dimethoxyphenyl)-1H-1,2,4-triazole-3-carboxamide (1), prevented DksA-mediated repression of rpsM in vitro transcription to some degree. […] Without intending to be limited to any particular theory, the effect that 1 has on DksA-dependent rpsM or hisG gene transcription is potentially due to differences in promoter activity.
as §2

SPI2 effector sifA = test: Intracellular expression of SPI2 effector sifA in infected macrophages; assay type: cell-based; details: Salmonella-infected macrophages, 16 μg/ml
[6] = tested on: intracellular Salmonella in J774 macrophage-like cells; test: Intracellular growth of Salmonella in macrophages; assay type: cell-based; details: for Antimicrobial activity against intracellular Salmonella growing in macrophages: J774 cells, cell culture media containing 10% fetal bovine serum
Salmonella strain 14028s [7] = test: Growth and survival assay in combination with antibiotics that target DNA replication; assay type: cell-based; details: #21 8 μg/ml, #23 16 μg/ml; EG media, 37° C., 20 hrs
Procedure: Salmonella strain 14028s was grown overnight at 37° C. with shaking in LB broth. Cell density was measured by spectrometer by following OD600. Cells were centrifuged and washed once with EG Minimal Salts Media (57.4 mM K2HPO4, 1.7 mM MgSO4, 9.5 mM Citric acid, 16.7 mM H5NNaPO4, and 0.4% D-Glucose, pH 7.0). The specimens were then resuspended with EG media and adjusted to the final concentration of 1×10^5/ml.
One hundred microliters of the cell dilution were plated onto LB agar plate to verify the starting concentration. Ten 5-ml cell culture tubes were prepared, and the diluted cells were transferred to the culture tubes at 1 ml/tube. The first culture tube was reserved as the control. The remaining nine tubes were divided into 3 groups (3 tubes each), which were treated with Nitrofurazone, 4-Nitroquinoline N-oxide, and Mitomycin C at 8 μM, 8 μM, and 0.75 μM, respectively. Within each group, two of the tubes additionally received compounds #21 or #23 at 8 μg/ml and 16 μg/ml, respectively. All tubes were then incubated with shaking at 37° C. for 20 hrs. Cells were collected, diluted, plated on LB agar plates, and subsequently counted. Survival percentages were calculated using bacteria counts divided by starting concentration.

Row | SMILES | In vitro transcription assay result, 0.1 μM (DksA [2]) | In vitro transcription assay result, 1 μM (DksA [2]) | IVT (DksA [2]) [µM] | Growth in EG at concentration tested 1 μg/ml (Salmonella strain 14028s [4]; 18 h) | Growth in EG at concentration tested 2 μg/ml (Salmonella strain 14028s [4]; 18 h) | Growth in EG at concentration tested 4 μg/ml (Salmonella strain 14028s [4]; 18 h) | Growth in EG at concentration tested 8 μg/ml (Salmonella strain 14028s [4]; 18 h) | Growth in EG at concentration tested 16 μg/ml (Salmonella strain 14028s [4]; 18 h) | MIC (Salmonella strain 14028s [4]; Salmonella, 14028S, 18 h) [µg/mL] | Compound Solubility, 1 μM (Compound solubility) | Compound Solubility, 10 μM (Compound solubility) | Compound Solubility, 100 μM (Compound solubility) | Compound Solubility, 1 mM (Compound solubility) | Compound Solubility, 10 mM (Compound solubility) | Compound Solubility, 16 mg/ml (Compound solubility) | also measured
1 | COc1ccc(NC(=O)c2nc[nH]n2)cc1OC [Compound 1, N-(3,4-dimethoxyphenyl)-1H-1,2,4-triazole-3-carboxamide] | no change | good repression | 1 | + | + | + | + | + | 32 (≈ 129 µM) | water | water | water | water | water | DMSO | Effect on rpsM in vitro transcription by the RNA polymerase itself [1]: did not affect; Anti-Salmonella activity in disk diffusion assays (Salmonella): greatest anti-Salmonella activity; Lactate dehydrogenase (LDH) released from J774 cells (J774 cells): did not change; Inhibition of DksA-dependent activation of hisG in vitro transcription (DksA [3]): completely inhibited; MIC (E. coli strain 3110): 32 µg/mL; MIC (E. coli strain 3110; converted): 129 µM; MIC (Salmonella strain 14028s [4]; read-out: Minimum inhibitory concentration): 32 µg/mL and 129 µM; Inhibition of DksA-mediated repression of rpsM in vitro transcription (DksA [5]; 1 μM): completely inhibited; Activity against DksA-mediated repression of rpsM in vitro transcription (DksA [5]; qualitative, listed as 916): excellent activity; also recorded: best in vitro efficacy; Intracellular expression of the SPI2 effector sifA (SPI2 effector sifA): repressed transcription; Intracellular expression of the SPI2 effector sifA (SPI2 effector sifA; listed as 916): inhibits the intracellular expression; Antimicrobial activity against intracellular Salmonella growing in macrophages [6]: potent antimicrobial activity; Antimicrobial activity against intracellular Salmonella growing in macrophages ([6]; listed as 916): inhibits intracellular growth; Intracellular growth of ΔdksA Salmonella ([6]; ΔdksA Salmonella, off-target control): unaffected
2 | COc1ccc(CCNC(=O)c2nc[nH]n2)cc1 [Compound 21, N-(4-methoxyphenethyl)-1H-1,2,4-triazole-3-carboxamide] | no induction | no induction | 0.1 | + | + | + | + | + | 32 (≈ 130 µM) | water | water | water | water | water | DMSO | Anti-Salmonella activity of 4-nitroquinoline-N-oxide, nitrofurazone and mytomycin in combination (Salmonella strain 14028s [7]): enhanced the anti-Salmonella activity
